Reference: patent US12459899B2, “Isoquinolinone derivatives, method for preparing the same, and pharmaceutical composition for preventing or treating poly(ADP-ribose) polymerase-1-related diseases, comprising the same as active ingredient” (DIGMBIO. INC., priority 2019, dated 2025)

The compounds below were run against PARP-1 (poly[ADP-ribose] polymerase 1) enzyme (Homo sapiens (Human), UniProt P09874) (assay: PARP-1 (poly[ADP-ribose] polymerase 1) enzyme inhibitory ability, Trevigen assay kit). Settings: 1 nM compound; read-out: PAR P-1 Inhibitory ability at 1 nM.
PARP-1 (poly[ADP-ribose] polymerase 1) enzyme, sequence (P09874 whole entry): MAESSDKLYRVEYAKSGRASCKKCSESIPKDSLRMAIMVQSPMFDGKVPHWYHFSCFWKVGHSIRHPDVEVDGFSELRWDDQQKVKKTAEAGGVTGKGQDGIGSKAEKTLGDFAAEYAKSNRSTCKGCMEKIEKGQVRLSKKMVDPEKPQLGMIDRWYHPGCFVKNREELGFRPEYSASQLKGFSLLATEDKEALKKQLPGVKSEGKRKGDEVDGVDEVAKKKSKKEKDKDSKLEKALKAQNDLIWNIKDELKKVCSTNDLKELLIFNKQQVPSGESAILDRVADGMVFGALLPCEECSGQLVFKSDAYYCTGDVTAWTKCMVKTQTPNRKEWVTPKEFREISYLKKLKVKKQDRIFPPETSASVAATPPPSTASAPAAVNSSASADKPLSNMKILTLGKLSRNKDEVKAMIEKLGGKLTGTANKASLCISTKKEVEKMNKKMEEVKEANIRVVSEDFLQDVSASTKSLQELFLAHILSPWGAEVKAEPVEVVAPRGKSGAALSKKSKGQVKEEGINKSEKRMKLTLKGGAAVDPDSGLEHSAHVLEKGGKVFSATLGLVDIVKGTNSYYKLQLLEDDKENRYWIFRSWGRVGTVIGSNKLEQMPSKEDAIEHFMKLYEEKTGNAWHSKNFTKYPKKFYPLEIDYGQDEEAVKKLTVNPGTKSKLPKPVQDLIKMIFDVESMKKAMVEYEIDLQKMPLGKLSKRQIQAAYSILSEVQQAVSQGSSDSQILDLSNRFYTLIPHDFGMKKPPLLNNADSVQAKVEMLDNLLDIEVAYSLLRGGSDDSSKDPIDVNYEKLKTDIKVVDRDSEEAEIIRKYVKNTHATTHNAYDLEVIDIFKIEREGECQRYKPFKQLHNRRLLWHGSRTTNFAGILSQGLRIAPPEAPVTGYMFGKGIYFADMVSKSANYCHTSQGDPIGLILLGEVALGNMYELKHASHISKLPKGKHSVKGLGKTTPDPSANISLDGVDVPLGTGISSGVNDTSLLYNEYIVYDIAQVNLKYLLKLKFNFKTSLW
Format: biochemical
Method in brief: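 After the 1 hour PARP reaction, wells were washed with PBS containing 0.1% triton X-100 and then PBS. Strep-HRP (50 μL) was bound for 1 hour, wells washed again, and 50 μL of TACS-sapphire substrate developed 15 minutes in the dark. Reactions were stopped with 50 μL of 5% phosphoric acid and absorbance read at 450 nm on a Victor3 reader.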

Compound | inhibition at 0.001 µM
Cc1ccc(F)c2c(=O)[nH]c(CCCN3CCN(C(=O)c4ccc(F)cc4)CC3)cc12 [Example 67, 8-fluoro-3-(3-(4-(4-fluorobenzoyl)piperazin-1-yl)propyl)-5-methylisoquinolin-1(2H)-one] | < 50%
N#Cc1ccc(N2CCN(C(=O)CCc3cc4cccc(F)c4c(=O)[nH]3)CC2)cc1 [Example 68, 4-(4-(3-(8-fluoro-1-oxo-1,2-dihydroisoquinolin-3-yl)propanoyl)piperazin-1-yl)benzonitrile] | < 50%
N#Cc1ccc(C2=CCN(C(=O)CCc3cc4cccc(F)c4c(=O)[nH]3)CC2)cc1 [Example 69, 4-(1-(3-(8-fluoro-1-oxo-1,2-dihydroisoquinolin-3-yl)propanoyl)-1,2,3,6-tetrahydropyridin-4-yl)benzonitrile] | < 50%
N#Cc1ccc(N2CCN(C(=O)CCc3cc4cccc(F)c4c(=O)[nH]3)CC2)cn1 [Example 70, 5-(4-(3-(8-fluoro-1-oxo-1,2-dihydroisoquinolin-3-yl)propanoyl)piperazin-1-yl)picolinonitrile] | < 50%
N#Cc1ccc(N2CCN(C(=O)CCc3cc4cccc(F)c4c(=O)[nH]3)CC2)nc1 [Example 71, 6-(4-(3-(8-fluoro-1-oxo-1,2-dihydroisoquinolin-3-yl)propanoyl)piperazin-1-yl)nicotinonitrile] | < 50%
N#Cc1ccc(N2CCN(C(=O)CCc3cc4cccc(F)c4c(=O)[nH]3)CC2)cc1F [Example 72, 2-fluoro-4-(4-(3-(8-fluoro-1-oxo-1,2-dihydroisoquinolin-3-yl)propanoyl)piperazin-1-yl)benzonitrile] | < 50%
N#Cc1ccc(N2CCN(C(=O)CCc3cc4cccc(F)c4c(=O)[nH]3)CC2)c(F)c1 [Example 73, 3-fluoro-4-(4-(3-(8-fluoro-1-oxo-1,2-dihydroisoquinolin-3-yl)propanoyl)piperazin-1-yl)benzonitrile] | < 50%
N#Cc1ccccc1N1CCN(C(=O)CCc2cc3cccc(F)c3c(=O)[nH]2)CC1 [Example 74, 2-(4-(3-(8-fluoro-1-oxo-1,2-dihydroisoquinolin-3-yl)propanoyl)piperazin-1-yl)benzonitrile] | < 50%
O=C(CCc1cc2cccc(F)c2c(=O)[nH]1)N1CCN(c2ccccc2F)CC1 [Example 75, 8-fluoro-3-(3-(4-(2-fluorophenyl)piperazin-1-yl)-3-oxopropyl)isoquinolin-1(2H)-one] | < 50%
N#Cc1cc(F)ccc1N1CCN(C(=O)CCc2cc3cccc(F)c3c(=O)[nH]2)CC1 [Example 76, 5-fluoro-2-(4-(3-(8-fluoro-1-oxo-1,2-dihydroisoquinolin-3-yl)propanoyl)piperazin-1-yl)benzonitrile] | < 50%
N#Cc1cccc(N2CCN(C(=O)CCc3cc4cccc(F)c4c(=O)[nH]3)CC2)c1 [Example 77, 3-(4-(3-(8-fluoro-1-oxo-1,2-dihydroisoquinolin-3-yl)propanoyl)piperazin-1-yl)benzonitrile] | < 50%
O=C(CCc1cc2cccc(F)c2c(=O)[nH]1)N1CCN(c2ccc(F)cc2F)CC1 [Example 78, 3-(3-(4-(2,4-difluorophenyl)piperazin-1-yl)-3-oxopropyl)-8-fluoroisoquinolin-1(2H)-one] | < 50%
N#Cc1ccc(F)c(N2CCN(C(=O)CCc3cc4cccc(F)c4c(=O)[nH]3)CC2)c1 [Example 79, 4-fluoro-3-(4-(3-(8-fluoro-1-oxo-1,2-dihydroisoquinolin-3-yl)propanoyl)piperazin-1-yl)benzonitrile] | < 50%
N#Cc1cc(N2CCN(C(=O)CCc3cc4cccc(F)c4c(=O)[nH]3)CC2)ccc1F [Example 80, 2-fluoro-5-(4-(3-(8-fluoro-1-oxo-1,2-dihydroisoquinolin-3-yl)propanoyl)piperazin-1-yl)benzonitrile] | < 50%
N#Cc1ccc(F)cc1N1CCN(C(=O)CCc2cc3cccc(F)c3c(=O)[nH]2)CC1 [Example 81, 4-fluoro-2-(4-(3-(8-fluoro-1-oxo-1,2-dihydroisoquinolin-3-yl)propanoyl)piperazin-1-yl)benzonitrile] | < 50%
O=C(CCc1cc2cccc(F)c2c(=O)[nH]1)N1CC=C(c2ccccc2F)CC1 [Example 82, 8-fluoro-3-(3-(4-(2-fluorophenyl)-3,6-dihydropyridin-1(2H)-yl)-3-oxopropyl)isoquinolin-1(2H)-one] | < 50%
O=C(CCc1cc2cccc(F)c2c(=O)[nH]1)N1CC=C(c2cccc(F)c2)CC1 [Example 83, 8-fluoro-3-(3-(4-(3-fluorophenyl)-3,6-dihydropyridin-1(2H)-yl)-3-oxopropyl)isoquinolin-1(2H)-one] | < 50%
N#Cc1cc(F)cc(C2=CCN(C(=O)CCc3cc4cccc(F)c4c(=O)[nH]3)CC2)c1 [Example 84, 3-fluoro-5-(1-(3-(8-fluoro-1-oxo-1,2-dihydroisoquinolin-3-yl)propanoyl)-1,2,3,6-tetrahydropyridin-4-yl)benzonitrile] | < 50%
O=C(CCc1cc2cccc(F)c2c(=O)[nH]1)N1CC=C(c2ccc(F)nc2)CC1 [Example 85, 8-fluoro-3-(3-(6-fluoro-3′,6′-dihydro-[3,4′-bipyridine]-1′(2′H)-yl)-3-oxopropyl)isoquinolin-1(2H)-one] | < 50%
O=C(CCc1cc2cccc(F)c2c(=O)[nH]1)N1CC=C(c2ccc(F)cn2)CC1 [Example 86] | < 50%
N#Cc1cc(C2=CCN(C(=O)CCc3cc4cccc(F)c4c(=O)[nH]3)CC2)ccc1F [Example 87, 2-fluoro-5-(1-(3-(8-fluoro-1-oxo-1,2-dihydroisoquinolin-3-yl)propanoyl)-1,2,3,6-tetrahydropyridin-4-yl)benzonitrile] | < 50%
O=C(CCc1cc2cccc(F)c2c(=O)[nH]1)N1CCN(c2cccc(F)c2)CC1 [Example 89, 8-fluoro-3-(3-(4-(3-fluorophenyl)piperazin-1-yl)-3-oxopropyl)isoquinolin-1(2H)-one] | < 50%

Continued, values first:

inhibition at 0.001 µM | Compound
< 50% | O=C(CCc1cc2cccc(F)c2c(=O)[nH]1)N1CC=C(c2ccnc(F)c2)CC1 [Example 92, 8-fluoro-3-(3-(2′-fluoro-3,6-dihydro-[4,4′-bipyridine]-1(2H)-yl)-3-oxopropyl)isoquinolin-1(2H)-one]
< 50% | N#Cc1ccc(C2=CCN(C(=O)CCc3cc4cccc(F)c4c(=O)[nH]3)CC2)cn1 [Example 93, 1′-(3-(8-fluoro-1-oxo-1,2-dihydroisoquinolin-3-yl)propanoyl)-1′,2′,3′,6′-tetrahydro-[3,4′-bipyridine]-6-carbonitrile]
< 50% | N#Cc1ccc(N2CCN(C(=O)CCc3cc4ccc(F)cc4c(=O)[nH]3)CC2)cc1 [Example 94, 4-(4-(3-(7-fluoro-1-oxo-1,2-dihydroisoquinolin-3-yl)propanoyl)piperazin-1-yl)benzonitrile]
< 50% | N#Cc1ccc(C2=CCN(C(=O)CCc3cc4ccc(F)cc4c(=O)[nH]3)CC2)cc1 [Example 95, 4-(1-(3-(7-fluoro-1-oxo-1,2-dihydroisoquinolin-3-yl)propanoyl)-1,2,3,6-tetrahydropyridin-4-yl)benzonitrile]
< 50% | N#Cc1ccc(C2=CCN(C(=O)CCc3cc4ccc(F)cc4c(=O)[nH]3)CC2)nc1 [Example 96, 1′-(3-(7-fluoro-1-oxo-1,2-dihydroisoquinolin-3-yl)propanoyl)-1′,2′,3′,6′-tetrahydro-[2,4′-bipyridine]-5-carbonitrile]
< 50% | N#Cc1ccc(N2CCN(C(=O)CCc3cc4ccc(F)cc4c(=O)[nH]3)CC2)cn1 [Example 97, 5-(4-(3-(7-fluoro-1-oxo-1,2-dihydroisoquinolin-3-yl)propanoyl)piperazin-1-yl)picolinonitrile]
< 50% | N#Cc1ccccc1N1CCN(C(=O)CCc2cc3ccc(F)cc3c(=O)[nH]2)CC1 [Example 98, 2-(4-(3-(7-fluoro-1-oxo-1,2-dihydroisoquinolin-3-yl)propanoyl)piperazin-1-yl)benzonitrile]
< 50% | N#Cc1ccc(N2CCN(C(=O)CCc3cc4ccc(F)cc4c(=O)[nH]3)CC2)nc1 [Example 99, 6-(4-(3-(7-fluoro-1-oxo-1,2-dihydroisoquinolin-3-yl)propanoyl)piperazin-1-yl)nicotinonitrile]
< 50% | N#Cc1ccc(N2CCN(C(=O)CCc3cc4ccc(F)cc4c(=O)[nH]3)CC2)c(F)c1 [Example 100, 3-fluoro-4-(4-(3-(7-fluoro-1-oxo-1,2-dihydroisoquinolin-3-yl)propanoyl)piperazin-1-yl)benzonitrile]
< 50% | N#Cc1ccc(N2CCN(C(=O)CCc3cc4ccc(F)cc4c(=O)[nH]3)CC2)cc1F [Example 101, 2-fluoro-4-(4-(3-(7-fluoro-1-oxo-1,2-dihydroisoquinolin-3-yl)propanoyl)piperazin-1-yl)benzonitrile]
< 50% | O=C(CCc1cc2ccc(F)cc2c(=O)[nH]1)N1CC=C(c2ccc(F)nc2)CC1 [Example 102]
< 50% | O=C(CCc1cc2ccc(F)cc2c(=O)[nH]1)N1CC=C(c2ccc(F)cn2)CC1 [Example 103, 7-fluoro-3-(3-(5-fluoro-3′,6′-dihydro-[2,4′-bipyridine]-1′(2′H)-yl)-3-oxopropyl)isoquinolin-1(2H)-one]
< 50% | O=C(CCc1cc2ccc(F)cc2c(=O)[nH]1)N1CC=C(c2ccc(F)cc2)CC1 [Example 104, 7-fluoro-3-(3-(4-(4-fluorophenyl)-3,6-dihydropyridin-1(2H)-yl)-3-oxopropyl)isoquinolin-1(2H)-one]
< 50% | O=C(CCc1cc2ccc(F)cc2c(=O)[nH]1)N1CCN(c2ccc(Cl)cc2)CC1 [Example 105, 3-(3-(4-(4-chlorophenyl)piperazin-1-yl)-3-oxopropyl)-7-fluoroisoquinolin-1(2H)-one]

Same assay, conditions: PARP-1 enzyme activity

Compound | IC50
N#Cc1ccc(N2CCN(C(=O)CCc3cc4cccc(F)c4c(=O)[nH]3)CC2)cc1 [Example 68, 4-(4-(3-(8-fluoro-1-oxo-1,2-dihydroisoquinolin-3-yl)propanoyl)piperazin-1-yl)benzonitrile] | 1.9 nM
N#Cc1ccc(N2CCN(C(=O)CCc3cc4ccc(F)cc4c(=O)[nH]3)CC2)nc1 [Example 99, 6-(4-(3-(7-fluoro-1-oxo-1,2-dihydroisoquinolin-3-yl)propanoyl)piperazin-1-yl)nicotinonitrile] | 1.05 nM
O=C(CCc1cc2ccc(F)cc2c(=O)[nH]1)N1CC=C(c2ccc(F)cn2)CC1 [Example 103, 7-fluoro-3-(3-(5-fluoro-3′,6′-dihydro-[2,4′-bipyridine]-1′(2′H)-yl)-3-oxopropyl)isoquinolin-1(2H)-one] | 0.91 nM
